Experimental data published in ChEMBL document CHEMBL1201862, “PubChem BioAssay data set” (2004).
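Values below derive from 48-hour exposures of cells grown in 96-well plates, with endpoints linearly interpolated between the two concentrations bracketing the appropriate inhibition level. At the GI50, growth is halved.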 The source made the active and inactive calls. No stated cut-off is given here; in the data, active = GI50 up to about 1.1 µM and inactive = higher.

How the values were obtained:
Experiment in all cases: NCI tumour cell line growth inhibition, 48 h
HCT-15 = test system: HCT-15
XF498 = test system: XF498
ACHN = test system: ACHN
SK-OV-3 = test system: SK-OV-3
SR = test system: SR
EKVX = test system: EKVX
CAKI-1 = test system: CAKI-1
KM12 = test system: KM12
SNB-75 = test system: SNB-75
M19-MEL = test system: M19-MEL
DLD-1 = test system: DLD-1
IGROV-1 = test system: IGROV-1
A498 = test system: A498
LOX IMVI = test system: LOX IMVI
UO-31 = test system: UO-31
SNB-19 = test system: SNB-19
K562 = test system: K562
NCI-H226 = test system: NCI-H226
Malme-3M = test system: Malme-3M
U-251 = test system: U-251
COLO 205 = test system: COLO 205
SK-MEL-28 = test system: SK-MEL-28
SW-620 = test system: SW-620
OVCAR-8 = test system: OVCAR-8
KM-20L2 = test system: KM-20L2
HL-60 = test system: HL-60
DMS-114 = test system: DMS-114
SK-MEL-5 = test system: SK-MEL-5
786-0 = test system: 786-0
SNB-78 = test system: SNB-78
NCI-H460 = test system: NCI-H460
SF-539 = test system: SF-539
HCC 2998 = test system: HCC 2998
SF-295 = test system: SF-295
HT-29 = test system: HT-29
HCT-116 = test system: HCT-116
M14 = test system: M14
OVCAR-4 = test system: OVCAR-4
A549 = test system: A549
SK-MEL-2 = test system: SK-MEL-2
OVCAR-3 = test system: OVCAR-3
TK-10 = test system: TK-10
MOLT-4 = test system: MOLT-4
SF-268 = test system: SF-268
RPMI-8226 = test system: RPMI-8226
HOP-62 = test system: HOP-62
UACC-257 = test system: UACC-257
RXF 393 = test system: RXF 393
SN12C = test system: SN12C
NCI-H23 = test system: NCI-H23
DMS-273 = test system: DMS-273
OVCAR-5 = test system: OVCAR-5
HOP-92 = test system: HOP-92
NCI-H522 = test system: NCI-H522
HOP-18 = test system: HOP-18
CCRF-CEM = test system: CCRF-CEM
UACC-62 = test system: UACC-62
LXFL 529 = test system: LXFL 529

For `COC(=O)Cc1cc(=O)n2c3ccccc3n(C)c2c1C#N`, the GI50 (HCT-15) was greater than 100 µM, the GI50 (XF498) was > 100 µM (inactive) and the GI50 (ACHN) was > 100 µM (inactive). For the same compound, the GI50 (SK-OV-3) was > 100 µM (inactive), the GI50 (SR) was > 100 µM (inactive) and the GI50 (EKVX) was > 100 µM (inactive). For the same compound, the GI50 (CAKI-1) was > 100 µM (inactive), the GI50 (KM12) was > 100 µM (inactive) and the GI50 (SNB-75) was 68.7 µM (inactive). The GI50 (M19-MEL) was > 100 µM (inactive), the GI50 (DLD-1) was > 100 µM (inactive) and the GI50 (IGROV-1) was > 100 µM (inactive). For the same compound, the GI50 (A498) was > 100 µM (inactive), the GI50 (LOX IMVI) was > 100 µM (inactive) and the GI50 (UO-31) was > 100 µM (inactive). The GI50 (SNB-19) was > 100 µM (inactive), the GI50 (K562) was > 100 µM (inactive) and the GI50 (NCI-H226) was > 100 µM (inactive). The GI50 (Malme-3M) was > 100 µM (inactive), the GI50 (U-251) was > 100 µM (inactive) and the GI50 (COLO 205) was > 100 µM (inactive). The GI50 (SK-MEL-28) was > 100 µM (inactive), the GI50 (SW-620) was > 100 µM (inactive) and the GI50 (OVCAR-8) was > 100 µM (inactive). For the same compound, the GI50 (KM-20L2) was > 100 µM (inactive), the GI50 (HL-60) was > 100 µM (inactive) and the GI50 (DMS-114) was > 100 µM (inactive). The GI50 (SK-MEL-5) was 52.2 µM (inactive), the GI50 (786-0) was > 100 µM (inactive) and the GI50 (SNB-78) was > 100 µM (inactive). For the same compound, the GI50 (NCI-H460) was > 100 µM (inactive), the GI50 (SF-539) was > 100 µM (inactive) and the GI50 (HCC 2998) was > 100 µM (inactive). For the same compound, the GI50 (SF-295) was > 100 µM (inactive), the GI50 (HT-29) was > 100 µM (inactive) and the GI50 (HCT-116) was > 100 µM (inactive). The GI50 (M14) was > 100 µM (inactive), the GI50 (OVCAR-4) was > 100 µM (inactive) and the GI50 (A549) was > 100 µM (inactive). The GI50 (SK-MEL-2) was > 100 µM (inactive), the GI50 (OVCAR-3) was > 100 µM (inactive) and the GI50 (TK-10) was > 100 µM (inactive). The GI50 (MOLT-4) was > 100 µM (inactive), the GI50 (SF-268) was > 100 µM (inactive) and the GI50 (RPMI-8226) was > 100 µM (inactive). The GI50 (HOP-62) was > 100 µM (inactive), the GI50 (UACC-257) was > 100 µM (inactive) and the GI50 (RXF 393) was > 100 µM (inactive). The GI50 (SN12C) was > 100 µM (inactive), the GI50 (NCI-H23) was > 100 µM (inactive) and the GI50 (DMS-273) was > 100 µM (inactive). For the same compound, the GI50 (OVCAR-5) was > 100 µM (inactive).

With `C[C@]12CCC(=O)C(OC(=O)c3ccc([N+](=O)[O-])cc3)=C1CCC2=O` the GI50 (HCT-15) was greater than 100 µM, the GI50 (ACHN) was > 100 µM (inactive) and the GI50 (SK-OV-3) was > 100 µM (inactive). The GI50 (SR) was > 100 µM (inactive), the GI50 (EKVX) was > 100 µM (inactive) and the GI50 (CAKI-1) was > 100 µM (inactive). For the same compound, the GI50 (KM12) was > 100 µM (inactive), the GI50 (SNB-75) was > 100 µM (inactive) and the GI50 (M19-MEL) was > 100 µM (inactive). For the same compound, the GI50 (DLD-1) was > 100 µM (inactive), the GI50 (IGROV-1) was > 100 µM (inactive) and the GI50 (A498) was > 100 µM (inactive). For the same compound, the GI50 (LOX IMVI) was > 100 µM (inactive), the GI50 (SNB-19) was > 100 µM (inactive) and the GI50 (HOP-92) was > 100 µM (inactive). For the same compound, the GI50 (NCI-H226) was 95.5 µM (inactive), the GI50 (Malme-3M) was > 100 µM (inactive) and the GI50 (U-251) was > 100 µM (inactive). For the same compound, the GI50 (COLO 205) was 98.6 µM (inactive), the GI50 (SK-MEL-28) was > 100 µM (inactive) and the GI50 (NCI-H522) was > 100 µM (inactive). The GI50 (SW-620) was > 100 µM (inactive), the GI50 (OVCAR-8) was > 100 µM (inactive) and the GI50 (KM-20L2) was > 100 µM (inactive). For the same compound, the GI50 (HL-60) was > 100 µM (inactive), the GI50 (DMS-114) was > 100 µM (inactive) and the GI50 (SK-MEL-5) was > 100 µM (inactive). The GI50 (786-0) was > 100 µM (inactive), the GI50 (SNB-78) was > 100 µM (inactive) and the GI50 (NCI-H460) was > 100 µM (inactive). For the same compound, the GI50 (HOP-18) was > 100 µM (inactive), the GI50 (SF-539) was > 100 µM (inactive) and the GI50 (HCC 2998) was > 100 µM (inactive). For the same compound, the GI50 (SF-295) was > 100 µM (inactive), the GI50 (HT-29) was > 100 µM (inactive) and the GI50 (HCT-116) was > 100 µM (inactive). For the same compound, the GI50 (M14) was > 100 µM (inactive), the GI50 (OVCAR-4) was > 100 µM (inactive) and the GI50 (CCRF-CEM) was > 100 µM (inactive). The GI50 (A549) was > 100 µM (inactive), the GI50 (UACC-62) was > 100 µM (inactive) and the GI50 (OVCAR-3) was > 100 µM (inactive). The GI50 (TK-10) was > 100 µM (inactive), the GI50 (MOLT-4) was > 100 µM (inactive) and the GI50 (SF-268) was > 100 µM (inactive). For the same compound, the GI50 (RPMI-8226) was > 100 µM (inactive), the GI50 (HOP-62) was > 100 µM (inactive) and the GI50 (UACC-257) was > 100 µM (inactive). The GI50 (RXF 393) was > 100 µM (inactive), the GI50 (SN12C) was > 100 µM (inactive) and the GI50 (LXFL 529) was > 100 µM (inactive). For the same compound, the GI50 (DMS-273) was > 100 µM (inactive) and the GI50 (OVCAR-5) was > 100 µM (inactive).
